What was measured:
[1] = system: Staphylococcus aureus, ATCC 25923; test: Bactericidal activity of NCT with heparin in human whole blood; type: cell-based; conditions: 37° C.
Experimental: FIG. 10 presents a plot of bactericidal activity of 1% NCT with 125 IE/mL heparin in human blood against Staphylococcus aureus (ATCC 25923) at […] and 37° C. Mean values±standard error of the mean of three independent experiments. P<0.01 between NCT and control samples.
Bacteria (Staphylococcus aureus, ATCC 25923 and Escherichia coli, ATCC 11229) grown in tryptic soy broth overnight were washed twice in saline and suspended in human whole blood containing 125 IE/mL heparin. Different volumes of a saline solution of NCT sodium salt were added to the suspension so that the test samples contained 10%, 25%, 50%, and 75% blood. In addition, 100% blood plus 125 IE/mL heparin was tested at which NCT was directly dissolved in blood. The final NCT concentration after mixing blood and NCT solutions was 1% in all samples. Controls contained 100% blood plus 125 IE/mL heparin and 10%, 25%, 50% and 75% blood, respectively, in saline, plus 125 IE/mL heparin without NCT. All of the solutions were incubated at 37° C. and pH 7.36-7.44 (the pH of blood). After 1, 3, 5, 10, 15, 30, 45 and 60 minutes, aliquots of 100 μL were removed and diluted tenfold or 100-fold in 0.6% sodium thiosulfate solution to inactivate the NCT. Aliquots (50 μL) of these dilutions were spread on tryptic soy agar plates. The plates were incubated at 37° C. and colony forming units of bacteria were counted after 24 and 48 hours. […]

Human Blood = conditions: Stief et al. [Ref 27]; cited from earlier work
external otitis = conditions: human external otitis [Ref 15]; cited from earlier work
Staphylococcus aureus = conditions: local administration, mouse model [Ref 21]; cited from earlier work

O=S(=O)(O)CCNCl [NCT, N-chlorotaurine]
bactericidal activity in blood ([1]; 1% NCT dissolved in 100% blood plus 125 IE/mL heparin): no significant bactericidal activity was detected
bactericidal activity in blood ([1]; 1% NCT in 10%, 25%, 50% and 75% blood plus 125 IE/mL heparin): demonstrated bactericidal activity
concentration with anticoagulant effect (not below) (Human Blood): 2 to 3 mmol/L
efficacy versus standard medication (external otitis): more effective than a standard medication
effect on septic arthritis (Staphylococcus aureus): inhibited septic arthritis

— patent publication US20110091570A1, “Compositions and Devices for Antisepsis and Anticoagulation” (priority 2008, published 2011)
